Data published in patent US10035760B2, “Inhibitors of human immunodeficiency virus replication” (priority 2013, dated 2018).
pEC50: −log10 of the molar value. Where two headings read alike, the source gives them in different places.

Test system: recombinant NL4-3 virus (Renilla luciferase) in MT-2 cells
Test: HIV cell culture assay (antiviral activity, luciferase readout in infected MT-2 cells)
Format: cell-based
Method: HIV cell culture assay—MT-2 cells, 293T cells and the proviral DNA clone of NL4-3 virus were obtained from the NIH AIDS Research and Reference Reagent Program. MT-2 cells were propagated in RPMI 1640 media supplemented with 10% heat inactivated fetal bovine serum (FBS), 100 ug/ml penicillin G and up to 100 units/ml streptomycin. The 293T cells were propagated in DMEM media supplemented with 10% heat inactivated FBS, 100 ug/ml penicillin G and 100 ug/ml streptomycin. A recombinant NL4-3 proviral clone, in which a section of the nef gene was replaced with the Renilla luciferase gene, was used to make the reference virus used in these studies. The recombinant virus was prepared through transfection of the recombinant NL4-3 proviral clone into 293T cells using Transit-293 Transfection Reagent from Mirus Bio LLC (Madison, Wis.). Supernatent was harvested after 2-3 days after transfection, and the amount of virus present was titered in MT-2 cells using luciferase enzyme activity as a marker. Luciferase activity was quantitated using the EnduRen Live Cell Substrate from Promega (Madison, Wis.). Antiviral activities of compounds toward the recombinant virus were quantified by measuring luciferase activity in MT-2 cells infected for 4-5 days with the recombinant virus in the presence of serial dilutions of the compound.
The 50% effective concentration (EC50) was calculated by using the exponential form of the median effect equation where (Fa)=1/[1+(ED50/drug conc.)^m](Johnson V A, Byington R T. Infectivity Assay. In Techniques in HIV Research. ed. Aldovini A, Walker B D. 71-76. New York: Stockton Press. 1990).

[1] = Renilla, NL43, read-out: Activity, antiviral activity class, recombinant NL4-3 Renilla luciferase virus in MT-2 cells
[2] = Renilla, NL43, recombinant NL4-3 Renilla luciferase virus in MT-2 cells

Compound: COc1ccc(OC)c(S(=O)(=O)NC(=O)N[C@@H](Cc2ccccc2)C(=O)N(C)c2ccc3c(c2)OCO3)c1 [Example 30, (S)—N-(benzo[d][1,3]dioxol-5-yl)-2-(3-((2,5-dimethoxyphenyl)sulfonyl)ureido)-N-methyl-3-phenylpropanamide]
- pEC50 [1]: > 7.00

Compound: CN(C(=O)[C@H](Cc1ccccc1)NC(=O)NS(=O)(=O)c1cccs1)c1ccc2c(c1)OCO2 [Example 31, (S)—N-(benzo[d][1,3]dioxol-5-yl)-N-methyl-3-phenyl-2-(3-(thiophen-2-ylsulfonyl)ureido)propanamide]
- pEC50 [1]: 6.00 to 7.00

Compound: CN(C(=O)[C@H](Cc1ccccc1)NC(=O)NS(=O)(=O)c1cc(Cl)sc1Cl)c1ccc2c(c1)OCO2 [Example 32, (S)—N-(benzo[d][1,3]dioxol-5-yl)-2-(3-((2,5-dichlorothiophen-3-yl)sulfonyl)ureido)-N-methyl-3-phenylpropanamide]
- pEC50 [1]: > 7.00
- pEC50 [2]: 7.15

Compound: Cc1nn(C)c(Cl)c1S(=O)(=O)NC(=O)N[C@@H](Cc1ccccc1)C(=O)N(C)c1ccc2c(c1)OCO2 [Example 33, (S)—N-(benzo[d][1,3]dioxol-5-yl)-2-(3-((5-chloro-1,3-dimethyl-1H-pyrazol-4-yl)sulfonyl)ureido)-N-methyl-3-phenylpropanamide]
- pEC50 [1]: 6.00 to 7.00
- pEC50 [2]: 6.68

Compound: CN(C(=O)[C@H](Cc1ccccc1)NC(=O)NS(=O)(=O)c1ccccc1F)c1ccc2c(c1)OC(F)(F)O2 [Example 34, (S)—N-(2,2-difluorobenzo[d][1,3]dioxol-5-yl)-2-(3-((2-fluorophenyl)sulfonyl)ureido)-N-methyl-3-phenylpropanamide]
- pEC50 [1]: 6.00 to 7.00

Compound: CN(C(=O)[C@H](Cc1cc(F)cc(F)c1)NC(=O)NS(=O)(=O)c1ccccc1F)c1ccc2c(c1)OC(F)(F)O2 [Example 35, (S)—N-(2,2-difluorobenzo[d][1,3]dioxol-5-yl)-3-(3,5-difluorophenyl)-2-(3-((2-fluorophenyl)sulfonyl)ureido)-N-methylpropanamide]
- pEC50 [1]: 6.00 to 7.00

Compound: CN(C(=O)[C@H](Cc1ccccc1)NC(=O)NS(=O)(=O)c1ccccc1)c1ccc2c(c1)OC(F)(F)O2 [Example 36, (S)—N-(2,2-difluorobenzo[d][1,3]dioxol-5-yl)-N-methyl-3-phenyl-2-(3-(phenylsulfonyl)ureido)propanamide]
- pEC50 [1]: 5.00 to 6.00

Compound: Cc1ccccc1S(=O)(=O)NC(=O)N[C@@H](Cc1ccccc1)C(=O)N(C)c1ccc2c(c1)OC(F)(F)O2 [Example 37, (S)—N-(2,2-difluorobenzo[d][1,3]dioxol-5-yl)-N-methyl-3-phenyl-2-(3-(o-tolylsulfonyl)ureido)propanamide]
- pEC50 [1]: 6.00 to 7.00

Compound: CN(C(=O)[C@H](Cc1ccccc1)NC(=O)NS(=O)(=O)c1ccccc1Cl)c1ccc2c(c1)OC(F)(F)O2 [Example 38, (S)-2-(3-((2-chlorophenyl)sulfonyl)ureido)-N-(2,2-difluorobenzo[d][1,3]dioxol-5-yl)-N-methyl-3-phenylpropanamide]
- pEC50 [1]: 6.00 to 7.00
- pEC50 [2]: 6.51

Compound: CN(C(=O)[C@H](Cc1cc(F)cc(F)c1)NC(=O)NS(=O)(=O)c1ccccc1Cl)c1ccc2c(c1)OC(F)(F)O2 [Example 39, (S)-2-(3-((2-chlorophenyl)sulfonyl)ureido)-N-(2,2-difluorobenzo[d][1,3]dioxol-5-yl)-3-(3,5-difluorophenyl)-N-methylpropanamide]
- pEC50 [1]: 6.00 to 7.00

Compound: Cc1ccccc1S(=O)(=O)NC(=O)N[C@@H](Cc1cc(F)cc(F)c1)C(=O)N(C)c1ccc2c(c1)OC(F)(F)O2 [Example 40, (S)—N-(2,2-difluorobenzo[d][1,3]dioxol-5-yl)-3-(3,5-difluorophenyl)-N-methyl-2-(3-(o-tolylsulfonyl)ureido)propanamide]
- pEC50 [1]: 6.00 to 7.00

Compound: CN(C(=O)[C@H](Cc1cc(F)cc(F)c1)NC(=O)NS(=O)(=O)c1ccccc1)c1ccc2c(c1)OC(F)(F)O2 [Example 41, (S)—N-(2,2-difluorobenzo[d][1,3]dioxol-5-yl)-3-(3,5-difluorophenyl)-N-methyl-2-(3-(phenylsulfonyl)ureido)propanamide]
- pEC50 [1]: 6.00 to 7.00

Compound: CN(C(=O)[C@H](Cc1ccccc1)NC(=O)NS(=O)(=O)C1CC1)c1ccc2c(c1)OCO2 [Example 42, (S)—N-(benzo[d][1,3]dioxol-5-yl)-2-(3-(cyclopropylsulfonyl)ureido)-N-methyl-3-phenylpropanamide]
- pEC50 [1]: 6.00 to 7.00
- pEC50 [2]: 6.32

Compound: CC(C)S(=O)(=O)NC(=O)N[C@@H](Cc1ccccc1)C(=O)N(C)c1ccc2c(c1)OCO2 [Example 43, (S)—N-(benzo[d][1,3]dioxol-5-yl)-2-(3-(isopropylsulfonyl)ureido)-N-methyl-3-phenylpropanamide]
- pEC50 [1]: 6.00 to 7.00

Compound: CN(C(=O)[C@H](Cc1ccccc1)NC(=O)NS(C)(=O)=O)c1ccc2c(c1)OCO2 [Example 44, (S)—N-(benzo[d][1,3]dioxol-5-yl)-N-methyl-2-(3-(methylsulfonyl)ureido)-3-phenylpropanamide]
- pEC50 [1]: 5.00 to 6.00
- pEC50 [2]: 5.61

Compound: CC(C)CS(=O)(=O)NC(=O)N[C@@H](Cc1ccccc1)C(=O)N(C)c1ccc2c(c1)OCO2 [Example 45, (S)—N-(benzo[d][1,3]dioxol-5-yl)-2-(3-(isobutylsulfonyl)ureido)-N-methyl-3-phenylpropanamide]
- pEC50 [1]: 6.00 to 7.00

Compound: CN(C(=O)[C@H](Cc1ccccc1)NC(=O)NS(=O)(=O)C(C)(C)C)c1ccc2c(c1)OCO2 [Example 46, (S)—N-(benzo[d][1,3]dioxol-5-yl)-2-(3-(tert-butylsulfonyl)ureido)-N-methyl-3-phenylpropanamide]
- pEC50 [1]: 5.00 to 6.00

Compound: CN(C(=O)[C@H](Cc1ccccc1)NC(=O)N(C)S(=O)(=O)c1ccccc1Br)c1ccc2c(c1)OCO2 [Example 47, (S)—N-(benzo[d][1,3]dioxol-5-yl)-2-(3-((2-bromophenyl)sulfonyl)-3-methylureido)-N-methyl-3-phenylpropanamid]
- pEC50 [1]: 5.00 to 6.00

Compound: CN(C(=O)[C@H](Cc1ccccc1)NC(=O)NS(=O)(=O)c1ccccc1-c1cnn(C)c1)c1ccc2c(c1)OCO2 [Example 49, (S)—N-(benzo[d][1,3]dioxol-5-yl)-N-methyl-2-(3-((2-(1-methyl-1H-pyrazol-4-yl)phenyl)sulfonyl)ureido)-3-phenylpropanamide]
- pEC50 [2]: 5.87
- pEC50 (read-out: Activity, antiviral activity class, recombinant NL4-3 Renilla luciferase virus in MT-2 cells): 5.00 to 6.00

Compound: CN(C(=O)[C@H](Cc1ccccc1)NC(=O)NS(=O)(=O)c1ccccc1-c1ccoc1)c1ccc2c(c1)OCO2 [Example 50, (S)—N-(benzo[d][1,3]dioxol-5-yl)-2-(3-((2-(furan-3-yl)phenyl)sulfonyl)ureido)-N-methyl-3-phenylpropanamide]
- pEC50 [1]: 6.00 to 7.00

Compound: Cc1ccccc1S(=O)(=O)NC(=O)N[C@@H](Cc1ccc(Cl)cc1)C(=O)N(C)c1ccc2c(c1)OCO2 [Example 51, (S)—N-(benzo[d][1,3]dioxol-5-yl)-3-(4-chlorophenyl)-N-methyl-2-(3-(o-tolylsulfonyl)ureido)propanamide]
- pEC50 [1]: 6.00 to 7.00
- pEC50 [2]: 6.31

Compound: CCOc1ccc(C[C@H](NC(=O)NS(=O)(=O)c2ccccc2C)C(=O)N(C)c2ccc3c(c2)OCO3)cc1 [Example 52, (S)—N-(benzo[d][1,3]dioxol-5-yl)-3-(4-ethoxyphenyl)-N-methyl-2-(3-(o-tolylsulfonyl)ureido)propanamide]
- pEC50 [1]: 5.00 to 6.00
- pEC50 [2]: 5.21

Compound: Cc1ccccc1C[C@H](NC(=O)NS(=O)(=O)c1ccccc1C)C(=O)N(C)c1ccc2c(c1)OCO2 [Example 53, (S)—N-(benzo[d][1,3]dioxol-5-yl)-N-methyl-3-(o-tolyl)-2-(3-(o-tolylsulfonyl)ureido)propanamide]
- pEC50 [1]: 6.00 to 7.00

Compound: Cc1ccccc1S(=O)(=O)NC(=O)N[C@@H](Cc1ccccc1Cl)C(=O)N(C)c1ccc2c(c1)OCO2 [Example 54, (S)—N-(benzo[d][1,3]dioxol-5-yl)-3-(2-chlorophenyl)-N-methyl-2-(3-(o-tolylsulfonyl)ureido)propanamide]
- pEC50 [1]: 6.00 to 7.00

Compound: Cc1ccccc1S(=O)(=O)NC(=O)N[C@@H](Cc1cccc(Cl)c1)C(=O)N(C)c1ccc2c(c1)OCO2 [Example 55, (S)—N-(benzo[d][1,3]dioxol-5-yl)-3-(3-chlorophenyl)-N-methyl-2-(3-(o-tolylsulfonyl)ureido)propanamide]
- pEC50 [1]: 6.00 to 7.00

Compound: COc1ccc(C[C@H](NC(=O)NS(=O)(=O)c2ccccc2C)C(=O)N(C)c2ccc3c(c2)OCO3)cc1 [Example 56, (S)—N-(benzo[d][1,3]dioxol-5-yl)-3-(4-methoxyphenyl)-N-methyl-2-(3-(o-tolylsulfonyl)ureido)propanamide]
- pEC50 [1]: 5.00 to 6.00

Compound: Cc1ccccc1S(=O)(=O)NC(=O)N[C@@H](Cc1ccc(Br)cc1)C(=O)N(C)c1ccc2c(c1)OCO2 [Example 57, (S)—N-(benzo[d][1,3]dioxol-5-yl)-3-(4-bromophenyl)-N-methyl-2-(3-(o-tolylsulfonyl)ureido)propanamide]
- pEC50 [1]: 5.00 to 6.00

Compound: C=CCOc1ccc(C[C@H](NC(=O)NS(=O)(=O)c2ccccc2C)C(=O)N(C)c2ccc3c(c2)OCO3)cc1 [Example 58, (S)-3-(4-(allyloxy)phenyl)-N-(benzo[d][1,3]dioxol-5-yl)-N-methyl-2-(3-(o-tolylsulfonyl)ureido)propanamide]
- pEC50 [1]: 5.00 to 6.00
